Data taken from ChEMBL document CHEMBL1147221, “Illudin S, the sole antiviral compound in mature fruiting bodies of Omphalotus illudens” (J Nat Prod, 2003).
Calls of active or inactive are those of the source. The rule behind the calls is not given here.

Columns and labels:
[1] = Cytotoxicity against african green monkey CV1 cells at 0.5 ug/disk by neutral red staining; assay type: cell-based; conditions: chlorocebus aethiops, cv-1
Human alphaherpesvirus 1 [2] = experiment: Antiviral activity against HSV1 infected in african green monkey CV1 cells at 0.05 ug/disk by filter disk method; assay type: functional, organism-based; conditions: CV-1
Human alphaherpesvirus 1 [3] = experiment: Antiviral activity against HSV1 infected in african green monkey CV1 cells at 2.5 ug/disk by filter disk method; assay type: functional, organism-based; conditions: CV-1
Human alphaherpesvirus 1 [4] = experiment: Antiviral activity against HSV1 infected in african green monkey CV1 cells at 0.5 ug/disk by filter disk method; assay type: functional, organism-based; conditions: CV-1
Human alphaherpesvirus 1 [5] = experiment: Antiviral activity against HSV1 infected in african green monkey CV1 cells at 0.25 ug/disk by filter disk method; assay type: functional, organism-based; conditions: CV-1
[6] = Cytotoxicity against african green monkey CV1 cells at 0.025 ug/disk by neutral red staining; assay type: cell-based; conditions: chlorocebus aethiops, cv-1
Human alphaherpesvirus 1 [7] = experiment: Antiviral activity against HSV1 infected in african green monkey CV1 cells at 0.005 ug/disk by filter disk method; assay type: functional, organism-based; conditions: CV-1
Human alphaherpesvirus 1 [8] = experiment: Antiviral activity against HSV1 infected in african green monkey CV1 cells at 10 ug/disk by filter disk method; assay type: functional, organism-based; conditions: CV-1
[9] = Cytotoxicity against african green monkey CV1 cells at 0.010 ug/disk by neutral red staining; assay type: cell-based; conditions: chlorocebus aethiops, cv-1
[10] = Cytotoxicity against african green monkey CV1 cells at 5 ug/disk by neutral red staining; assay type: cell-based; conditions: chlorocebus aethiops, cv-1
Human alphaherpesvirus 1 [11] = experiment: Antiviral activity against HSV1 infected in african green monkey CV1 cells at 0.010 ug/disk by filter disk method; assay type: functional, organism-based; conditions: CV-1
Human alphaherpesvirus 1 [12] = experiment: Antiviral activity against HSV1 infected in african green monkey CV1 cells at 0.15 ug/disk by filter disk method; assay type: functional, organism-based; conditions: CV-1
Human alphaherpesvirus 1 [13] = experiment: Antiviral activity against HSV1 infected in african green monkey CV1 cells at 0.1 ug/disk by filter disk method; assay type: functional, organism-based; conditions: CV-1
[14] = Cytotoxicity against african green monkey CV1 cells at 0.005 ug/disk by neutral red staining; assay type: cell-based; conditions: chlorocebus aethiops, cv-1
[15] = Cytotoxicity against african green monkey CV1 cells at 10 ug/disk by neutral red staining; assay type: cell-based; conditions: chlorocebus aethiops, cv-1
[16] = Cytotoxicity against african green monkey CV1 cells at 0.25 ug/disk by neutral red staining; assay type: cell-based; conditions: chlorocebus aethiops, cv-1
[17] = Cytotoxicity against african green monkey CV1 cells at 0.05 ug/disk by neutral red staining; assay type: cell-based; conditions: chlorocebus aethiops, cv-1
Human alphaherpesvirus 1 [18] = experiment: Antiviral activity against HSV1 infected in african green monkey CV1 cells at 5 ug/disk by filter disk method; assay type: functional, organism-based; conditions: CV-1
[19] = Cytotoxicity against african green monkey CV1 cells at 2.5 ug/disk by neutral red staining; assay type: cell-based; conditions: chlorocebus aethiops, cv-1
[20] = Cytotoxicity against african green monkey CV1 cells at 0.015 ug/disk by neutral red staining; assay type: cell-based; conditions: chlorocebus aethiops, cv-1
[21] = Cytotoxicity against african green monkey CV1 cells at 1 ug/disk by neutral red staining; assay type: cell-based; conditions: chlorocebus aethiops, cv-1
Human alphaherpesvirus 1 [22] = experiment: Antiviral activity against HSV1 infected in african green monkey CV1 cells at 1 ug/disk by filter disk method; assay type: functional, organism-based; conditions: CV-1
[23] = Cytotoxicity against african green monkey CV1 cells at 0.15 ug/disk by neutral red staining; assay type: cell-based; conditions: chlorocebus aethiops, cv-1
[24] = Cytotoxicity against african green monkey CV1 cells at 0.1 ug/disk by neutral red staining; assay type: cell-based; conditions: chlorocebus aethiops, cv-1

Structure (SMILES): CC1=C2C(=C[C@@](C)(CO)[C@@H]2O)C(=O)[C@](C)(O)C12CC2 [ILLUDIN]
- Activity [1]: Toxic
- Activity (Human alphaherpesvirus 1 [2]): Active
- Activity (Human alphaherpesvirus 1 [3]): inactive
- Activity (Human alphaherpesvirus 1 [4]): inactive
- Activity (Human alphaherpesvirus 1 [5]): inactive
- Activity [6]: Non-toxic
- Activity (Human alphaherpesvirus 1 [7]): inactive
- Activity (Human alphaherpesvirus 1 [8]): inactive
- Activity [9]: Non-toxic
- Activity [10]: Toxic
- Activity (Human alphaherpesvirus 1 [11]): inactive
- Activity (Human alphaherpesvirus 1 [12]): Active
- Activity (Human alphaherpesvirus 1 [13]): Active
- Activity [14]: Non-toxic
- Activity [15]: Toxic
- Activity [16]: Toxic
- Activity [17]: Non-toxic
- Activity (Human alphaherpesvirus 1 [18]): inactive
- Activity [19]: Toxic
- Activity [20]: Non-toxic
- Activity [21]: Toxic
- Activity (Human alphaherpesvirus 1 [22]): inactive
- Activity [23]: Non-toxic
- Activity [24]: Non-toxic
